What all share (test): microbe, parasite or virus in culture
Common to all, as to format: cell-based
Common to all, as to conditions: hACE2-HEK293T cells

Assay [1] relates to SARS-CoV-2-S pseudovirus Omicron variant.
In assay [2] the test system is SARS-CoV-2-S pseudovirus Delta variant.
For assay [3], the system named is SARS-CoV-2-S pseudovirus Gamma variant.

As usually defined, the IC50 is the concentration at which inhibition is half-maximal. Turning to `Oc1cc(O)c2cc(O)c(-c3cc(O)c(O)c(O)c3)[o+]c2c1` [Delphinidin], the IC50 in assay [1] was 10800 ± 680 nM; in assay [2], greater than 200000 nM; in assay [3], greater than 200000 nM.
Regarding `C[C@@H]1O[C@@H](O[C@H]2[C@H](OC(=O)[C@]34CCC(C)(C)C[C@H]3C3=CC[C@@H]5[C@@]6(C)C[C@H](O)[C@H](O[C@@H]7O[C@H](CO)[C@@H](O)[C@H](O)[C@H]7O)C(CO)(CO)[C@@H]6CC[C@@]5(C)[C@]3(C)C[C@H]4O)OC[C@H](O)[C@@H]2O)[C@H](O)[C@H](O)[C@H]1O[C@@H]1OC[C@@H](O)[C@H](O)[C@H]1O` [DPD, Deapio platycodin D], the IC50 in assay [1] worked out at 1030 ± 20 nM; in assay [2], 830 ± 70 nM; in assay [3] it was 1000 ± 40 nM.

The values above are taken from paper PMC12165925 (Natural Products and Bioprospecting, 2025).
